We go through 25 compounds from patent publication US9040712B2, “Thiadiazole analogs thereof and methods for treating SMN-deficiency-related-conditions” (NOVARTIS AG, priority 2013, dated 2015).

This assay deals with SMN protein. Kind of assay: cellular SMN ELISA (SMN protein elevation). Format: cell-based. Conditions: myoblast cell line derived from SMNdelta7 mouse model; 24 hours compound treatment; concentration range 100 pM-10 uM. An outline of the steps:
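Myoblasts derived from the SMNdelta7 mouse model, 3000 cells/well, treated with compound (100 pM–10 uM) for 24 h, then lysed in modified RIPA buffer. SMN protein quantified by sandwich ELISA (anti-SMN mAb capture, rabbit polyclonal detection, HRP/TMB, 450 nm). Results given as fold activation over DMSO and EC50.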
In general terms: An ELISA detects its analyte on a solid surface through an enzyme-linked reagent.

One may read the EC50 as the concentration giving half of the maximal effect. Higher therefore signals lower potency in that assay. For `CN(c1nnc(-c2c(O)cc(-c3ccn(C)c(=O)c3)cc2OC(F)(F)F)s1)C1CC(C)(C)NC(C)(C)C1` [Example 60, 4-(3-hydroxy-4-(5-(methyl(2,2,6,6-tetra-methylpiperidin-4-yl)amino)-1,3,4-thiadiazol-2-yl)-5-(trifluoromethoxy)phenyl)-1-methylpyridin-2(1H)-one], the half-maximal effective concentration (EC50) was found to be 53 nM and the “SMN Activity Fold (fold activation over DMSO control)” value (from here on “SMN Activity Fold”) worked out at 2.69 fold.
With `COc1cc(-c2cn[nH]c2)cc(F)c1-c1nnc(N(C)C2CC(C)(C)NC(C)(C)C2)s1` [Example 61, 5-(2-fluoro-6-methoxy-4-(1H-pyrazol-4-yl)phenyl)-N-methyl-N-(2,2,6,6-tetramethylpiperidin-4-yl)-1,3,4-thiadiazol-2-amine], the EC50 was 95 nM and the “SMN Activity Fold” value amounted to 2.36 fold.
In the same order, the values of `COc1cc(-c2cn[nH]c2)cc(F)c1-c1nnc(N2C[C@H]3CN(C)C[C@H]3C2)s1` [Example 62, 2-(2-fluoro-6-methoxy-4-(1H-pyrazol-4-yl)phenyl)-5-((3aR,6aS)-5-methylhexahydro-pyrrolo[3,4-c]pyrrol-2(1H)-yl)-1,3,4-thiadiazole] are 3640 nM and 2.01 fold.
For `COc1cc(-c2cn[nH]c2)c(F)c(F)c1-c1nnc(N(C)C2CC(C)(C)NC(C)(C)C2)s1` [Example 63, 5-(2,3-difluoro-6-methoxy-4-(1H-pyrazol-4-yl)phenyl)-N-methyl-N-(2,2,6,6-tetramethyl-piperidin-4-yl)-1,3,4-thiadiazol-2-amine], in that order: 47 nM and 3.13 fold.
In the same order, the values of `COc1ccc2c(c1)CCN(c1nnc(N(C)C3CC(C)(C)NC(C)(C)C3)s1)C2=O` [Example 64, 6-methoxy-2-(5-(methyl(2,2,6,6-tetramethylpiperidin-4-yl)amino)-1,3,4-thiadiazol-2-yl)-3,4-dihydroisoquinolin-1(2H)-one] are 1620 nM and 2.51 fold.
Consider `CN(c1nnc(-c2ccc(-n3cccn3)cc2Cl)s1)C1CC(C)(C)NC(C)(C)C1` [Example 65, 5-(2-chloro-4-(1H-pyrazol-1-yl)phenyl)-N-methyl-N-(2,2,6,6-tetramethylpiperidin-4-yl)-1,3,4-thiadiazol-2-amine], for which a half-maximal response (EC50) required 273 nM and the “SMN Activity Fold” value is listed as 2.37 fold.
For `CN(c1nnc(-c2ccc(-n3ccnn3)cc2Cl)s1)C1CC(C)(C)NC(C)(C)C1` [Example 66, 5-(2-chloro-4-(1H-1,2,3-triazol-1-yl)phenyl)-N-methyl-N-(2,2,6,6-tetramethylpiperidin-4-yl)-1,3,4-thiadiazol-2-amine], in that order: 130 nM and 2.32 fold.
For `CN(c1nnc(-c2ccc(-n3nccn3)cc2Cl)s1)C1CC(C)(C)NC(C)(C)C1` [Example 67, 5-(2-chloro-4-(2H-1,2,3-triazol-2-yl)phenyl)-N-methyl-N-(2,2,6,6-tetramethylpiperidin-4-yl)-1,3,4-thiadiazol-2-amine], in that order: 159 nM and 2.45 fold.
Take `CN(c1nnc(-c2ccc(-n3cncn3)cc2Cl)s1)C1CC(C)(C)NC(C)(C)C1` [Example 68, 5-(2-chloro-4-(1H-1,2,4-triazol-1-yl)phenyl)-N-methyl-N-(2,2,6,6-tetramethylpiperidin-4-yl)-1,3,4-thiadiazol-2-amine]: the EC50 came out at 79 nM and the “SMN Activity Fold” value is listed as 2.64 fold.
For `CN(c1nnc(-c2ccc(-n3ccc(N)n3)cc2Cl)s1)C1CC(C)(C)NC(C)(C)C1` [Example 69, 5-(4-(3-amino-1H-pyrazol-1-yl)-2-chlorophenyl)-N-methyl-N-(2,2,6,6-tetramethylpiperidin-4-yl)-1,3,4-thiadiazol-2-amine], in that order: 171 nM and 2.44 fold.
In the same order, the values of `CN1C[C@@H]2CN(c3nnc(-c4ccc(-n5ccnc5)cc4Cl)s3)C[C@@H]2C1` [Example 70, 2-(2-chloro-4-(1H-imidazol-1-yl)phenyl)-5-((3aR,6aS)-5-methylhexahydropyrrolo[3,4-c]pyrrol-2(1H)-yl)-1,3,4-thiadiazole] are 2570 nM and 2.17 fold.
In the same order, the values of `CN(c1nnc(-c2ccc(-n3ccnc3)cc2Cl)s1)C1CC(C)(C)NC(C)(C)C1` [Example 71, 5-(2-chloro-4-(1H-imidazol-1-yl)phenyl)-N-methyl-N-(2,2,6,6-tetramethylpiperidin-4-yl)-1,3,4-thiadiazol-2-amine] are 32 nM and 2.40 fold.
In the case of `CN(c1nnc(-c2ccc(-n3ccnc3)cc2F)s1)C1CC(C)(C)NC(C)(C)C1` [Example 72, 5-(2-fluoro-4-(1H-imidazol-1-yl)phenyl)-N-methyl-N-(2,2,6,6-tetramethylpiperidin-4-yl)-1,3,4-thiadiazol-2-amine], a half-maximal effect (EC50) was put at 91 nM and the “SMN Activity Fold” value was 2.50 fold.
In the same order, the values of `COc1cc(-c2ccn[nH]2)ccc1-c1nnc(N(C)C2CC(C)(C)NC(C)(C)C2)s1` [Example 73, 5-(2-methoxy-4-(1H-pyrazol-5-yl)phenyl)-N-methyl-N-(2,2,6,6-tetramethylpiperidin-4-yl)-1,3,4-thiadiazol-2-amine] are 110 nM and 2.73 fold.
For `COc1cc(-c2sc(C)nc2C)ccc1-c1nnc(N(C)C2CC(C)(C)NC(C)(C)C2)s1` [Example 74, 5-(4-(2,4-dimethylthiazol-5-yl)-2-methoxyphenyl)-N-methyl-N-(2,2,6,6-tetramethylpiperidin-4-yl)-1,3,4-thiadiazol-2-amine], in that order: 85 nM and 2.64 fold.
In the same order, the values of `COc1cc(-c2cccnc2)ccc1-c1nnc(N(C)C2CC(C)(C)NC(C)(C)C2)s1` [Example 75, 5-(2-methoxy-4-(pyridin-3-yl)phenyl)-N-methyl-N-(2,2,6,6-tetramethylpiperidin-4-yl)-1,3,4-thiadiazol-2-amine] are 235 nM and 2.44 fold.
Take `CN(c1nnc(-c2ccc(-c3cn[nH]c3)cc2F)s1)C1CC(C)(C)NC(C)(C)C1` [Example 76, 5-(2-fluoro-4-(1H-pyrazol-4-yl)phenyl)-N-methyl-N-(2,2,6,6-tetramethylpiperidin-4-yl)-1,3,4-thiadiazol-2-amine]: the concentration giving a half-maximal response (EC50) turned out to be 43 nM and the “SMN Activity Fold” value came to 3.06 fold.
For `COc1cc(-c2ccc(-c3nnc(N(C)C4CC(C)(C)NC(C)(C)C4)s3)c(OC)c2)ccn1` [Example 77, 5-(2-methoxy-4-(2-methoxypyridin-4-yl)phenyl)-N-methyl-N-(2,2,6,6-tetramethyl-piperidin-4-yl)-1,3,4-thiadiazol-2-amine], in that order: 52 nM and 3.33 fold.
For `COc1ccc(-c2ccc(-c3nnc(N(C)C4CC(C)(C)NC(C)(C)C4)s3)c(OC)c2)cn1` [Example 78, 5-(2-methoxy-4-(6-methoxypyridin-3-yl)phenyl)-N-methyl-N-(2,2,6,6-tetramethyl-piperidin-4-yl)-1,3,4-thiadiazol-2-amine], in that order: 165 nM and 2.52 fold.
For `CN1C[C@@H]2CN(c3nnc(-c4ccc(-c5cnn(C)c5)cc4Cl)s3)C[C@@H]2C1` [Example 79, 2-(2-chloro-4-(1-methyl-1H-pyrazol-4-yl)phenyl)-5-((3aR,6aS)-5-methylhexahydropyrrolo[3,4-c]pyrrol-2(1H)-yl)-1,3,4-thiadiazole], in that order: 150 nM and 2.76 fold.
Consider `CN1C[C@@H]2CN(c3nnc(-c4ccc(-c5cn[nH]c5)cc4Cl)s3)C[C@@H]2C1` [Example 80, 2-(2-chloro-4-(1H-pyrazol-4-yl)phenyl)-5-((3aR,6aS)-5-methylhexahydropyrrolo[3,4-c]pyrrol-2(1H)-yl)-1,3,4-thiadiazole], for which a half-maximal response (EC50) required 149 nM and the “SMN Activity Fold” value was 2.70 fold.
Regarding `CN1CC[C@@H]2CN(c3nnc(-c4ccc(-c5cn[nH]c5)cc4Cl)s3)C[C@@H]21` [Example 81, 2-(2-chloro-4-(1H-pyrazol-4-yl)phenyl)-5-((3aR,6aR)-1-methylhexahydropyrrolo[3,4-b]pyrrol-5(1H)-yl)-1,3,4-thiadiazole], the midpoint of the response, the EC50, lay at 1540 nM and the “SMN Activity Fold” value stood at 2.38 fold.
For `CN(C)CC1CN(c2nnc(-c3ccc(-c4cn[nH]c4)cc3Cl)s2)CCO1` (centres unmarked) [Example 82, 1-(4-(5-(2-chloro-4-(1H-pyrazol-4-yl)phenyl)-1,3,4-thiadiazol-2-yl)morpholin-2-yl)-N,N-dimethylmethanamine], in that order: 994 nM and 2.50 fold.
For `CN1CCC2(CCCN(c3nnc(-c4ccc(-c5cn[nH]c5)cc4Cl)s3)C2)C1` (centres unmarked) [Example 83, 2-(2-chloro-4-(1H-pyrazol-4-yl)phenyl)-5-(2-methyl-2,7-diazaspiro[4.5]decan-7-yl)-1,3,4-thiadiazole], in that order: 3280 nM and 2.59 fold.
In the same order, the values of `CN1C[C@@H]2CN(c3nnc(-c4ccc(-c5cn[nH]c5)cc4F)s3)C[C@@H]2C1` [Example 84, 2-(2-fluoro-4-(1H-pyrazol-4-yl)phenyl)-5-((3aR,6aS)-5-methylhexahydropyrrolo[3,4-c]pyrrol-2(1H)-yl)-1,3,4-thiadiazole] are 193 nM and 2.11 fold.
